Data taken from patent US4581165A, “Anti-diabetic compounds” (Eli Lilly and Company, priority 1984, dated 1986).

Test system: isolated rat adipocytes
Experiment: Biological Activity in Isolated Rat Adipocytes (incorporation of 2-3H-glucose in total fat cell lipid)
Format: cell-based
Settings: 2-3H-glucose incorporation in total fat cell lipid, 37° for 1 hr, mean±SEM
Description: Adipocytes were prepared from epididymal fat pads by a modification (Huber, supra) of the collagenase digestion procedure of Rodbell, supra. Krebs-Ringer-HEPES (KRH) buffer, pH 7.4, containing 4% bovine serum albumin and 0.55 mM glucose was used in all isolation and incubation steps.
Biological activity was assessed according to the method of Moody, A. J., Stan, M. A., Stan, M., and Glieman, J., Horm. Metab. Res. 6, 12-16 (1974) by monitoring the incorporation of 2-^3 H-glucose in total fat cell lipid. […] Radioactivity was determined in a Searle Isocap 300 liquid scintillation counter at an efficiency of approximately 30%. Blanks were prepared in which the scintillation fluid was added to the vials prior to the addition of cells. The average counts obtained from these vials were subtracted from those observed in all other samples.
Competitive binding curves and biological activity dose-response curves were analyzed using the PREFIT and ALLFIT programs [DeLean, A., Munson, P. J., and Rodbard, D., Am. J. Physiol. 235, E97-E102 (1978)] based on a four-parameter logistic model. These analyses indicated the concentration of insulin or proinsulin necessary to produce a half-maximal response, as well as the maximal and minimal values. All values are presented as the mean±SEM.

Row | Substance | ED50
1 | Human Insulin: human insulin, reference in the binding and activity assays | 5.32 ± 0.7 × 10^-11 M
2 | Human Proinsulin: human proinsulin, starting material and reference; relative potency set to 1 | 1.24 ± 0.2 × 10^-8 M
